Laboratory results reported in US20010018095A1, “Method of forming a membrant, especially a latex or polymer membrane, including multiple discrete layers” (priority 1987, published 2001).

Tests used:
[1] = candidate solvents for polyurethane and biocide; cited from earlier work
[2] = tested on: latex-allergic or sensitive users; test: Gentian violet admixed with liquid latex: allergic reactions in users; settings: gentian violet admixed with liquid latex prior to membrane formation; 1.5% by weight solution preferred
Text: According to one aspect of the invention, gentian violet is admixed with liquid latex prior to membrane formation by dipping or spraying techniques. A wide variety of different concentrations may be used, but a 1.5% by weight solution of gentian violet is preferred. […] Other proteing binding biocides may be employed in place of or in combination with gentian violet.

Row | Compound | Hydrogen Bonding [1] | allergic reactions in latex-allergic or sensitive users [2]
1 | C1CCOC1 [Tetrahydrofuran (THF), Tetrahydrofuran] | medium | 
2 | CC(=O)N(C)C [Dimethyl acetamide (DMF), Dimethyl acetamide] | medium | 
3 | CCC(C)=O [Methyl ethyl ketone] | medium | 
4 | C[S+](C)[O-] [Dimethyl sulfoxide (DMS), Dimethyl sulfoxide] | medium | 
5 | CCC(=O)CC [Diethyl ketone] | medium | 
6 | CCOCCO [Ethylene glycol monoethyl ether] | medium | 
7 | Cc1cccc(O)c1 [m-Cresol] | strong | 
8 | CN(C)c1ccc(C(=C2C=CC(=[N+](C)C)C=C2)c2ccc(N(C)C)cc2)cc1 [gentian violet] |  | minimize allergic reactions
